The subject of this assay is HIV-1 (H9IIIB strain). Briefly: Cell-Based HIV Infection Assay Using a Reporter (MT4-GFP cells). Particulars: Human immunodeficiency virus 1, inflection point (IP) of viral growth inhibition; MT4-GFP cells infected with HIV-1 H9IIIB; 50% normal human serum; mean of at least two independent experiments; read-out: Cell Based IP (50% NHS). The procedure, abridged: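 MT4-GFP cells (HIV LTR-driven GFP) bulk-infected with HIV-1 H9IIIB at low MOI for 24 h, washed, then exposed to compounds in RPMI plus 50% normal human serum, 0.4% DMSO. Infected cells counted at 24 and 48 h; R0 = 48 h/24 h ratio, inhibition normalised to DMSO and triple-drug control; IP from 4-parameter fit.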

As for `CC1(C)CC([C@H](c2ccc(Cl)cc2)[C@H](NC(=O)CN)C(=O)N[C@H]2CCC[C@@H]2CC[C@H]2CN[C@@H]3CCCS(=O)(=O)N2C3)CCO1` (stereo partly drawn) [Example 232, glycyl-(βR)-4-chloro-β-(2,2-dimelhyltetrahydro-2H-pyran-4-yl)-N-[(1S,2R)-2-{2-[(6R,9S)-2,2-dioxido-2-thia-1,7-diazabicyclo[4.3.1]dec-9-yl]ethyl}cyclopentyl]-L-phenylalaninamide], the EC50 was determined as 2500 nM. On to `N[C@H](C(=O)Nc1cncc(F)c1CC[C@H]1CN[C@@H]2CCCS(=O)(=O)N1C2)C1(c2ccc(Cl)cc2)CCOCC1` [Example 233, (2S)-2-amino-2-[4-(4-chlorophenyl)tetrahydro-2H-pyran-4-yl]-N-(4-{2-[(6R,9S)-2,2-dioxido-2-thia-1,7-diazabicyclo[4.3.1]dec-9-yl]ethyl}-5-fluoropyridin-3-yl)ethanamide], for which the EC50 was determined as 67 nM. Next, `N[C@H](C(=O)Nc1cncc(F)c1CC[C@H]1CN[C@@H]2CCCS(=O)(=O)N1C2)[C@H](c1cncc(F)c1)c1ccc(Cl)c(F)c1` [Example 234, (βS)-4-chloro-N-(4-{2-[(6R,9S)-2,2-dioxido-2-thia-1,7-diazabicyclo[4.3.1]dec-9-yl]ethyl}-5-fluoropyridin-3-yl)-3-fluoro-β-(5-fluoropyridin-3-yl)-L-phenylalaninamide]: 50 nM. For the compound `CO[C@H]1CC[C@](c2ccc(F)cc2)([C@H](N)C(=O)Nc2cncc(F)c2CC[C@H]2CN[C@@H]3CCCS(=O)(=O)N2C3)CC1` [Example 235, (2S)-2-amino-N-(4-{2-[(6R,9S)-2,2-dioxido-2-thia-1,7-diazabicyclo[4.3.1]dec-9-yl]ethyl}-5-fluoropyridin-3-yl)-2-[trans-1-(4-fluorophenyl)-4-methoxycyclohexyl]ethanamide], the EC50 is 67 nM.

For `N[C@H](C(=O)Nc1cncc(F)c1CC[C@H]1CN[C@@H]2CCCS(=O)(=O)N1C2)[C@@H](c1ccc(Cl)cc1)c1cc(F)cc(F)c1` [Example 236, (βS)-β-(4-chlorophcnyl)-N-(4-{2-[(6R,9S)-2,2-dioxido-2-thia-1,7-diazabicyclo[4.3.1]dec-9-yl]ethyl}-5-fluoropyridin-3-yl)-3,5-difluoro-L-phenylalaninamide], the EC50 was found to be 2.8 nM. Consider `CC1(C)CC([C@H](c2ccc(Cl)cc2)[C@H](NC(=O)C(C)(C)N)C(=O)N[C@H]2CCC[C@@H]2CC[C@H]2CN[C@@H]3CCCS(=O)(=O)N2C3)CCO1` (stereo partly drawn) [Example 237, 2-methylalanyl-(βR)-4-chloro-β-(2,2-dimethyltetrahydro-2H-pyran-4-yl)-N-[(1S,2R)-2-{2-[(6R,9S)-2,2-dioxido-2-thia-1,7-diazabicyclo[4.3.1]dec-9-yl]ethyl}cyclopentyl]-L-phenylalaninamide], for which the EC50 came to 150 nM.

On to `CC(C)[C@H](c1ccc(Cl)cc1)[C@H](N)C(=O)Nc1cncc(F)c1CC[C@H]1CN[C@@H]2CCCS(=O)(=O)N1C2` [Example 238, (2S,3R)-2-amino-3-(4-chlorophenyl)-N-(4-(2-((6R,9S)-2,2-dioxido-2-thia-1,7-diazabicyclo[4.3.1]decan-9-yl)ethyl)-5-fluoropyridin-3-yl)-4-methylpentanamide], for which the EC50 was 13 nM. In the case of `CO[C@H]1CC[C@H]([C@H](c2ccc(Cl)cc2)[C@H](N)C(=O)Nc2cncc(F)c2CC[C@H]2CN[C@@H]3CCCS(=O)(=O)N2C3)CC1` [Example 239, (2S,3R)-2-amino-3-(4-chlorophenyl)-N-(4-(2-((6R,9S)-2,2-dioxido-2-thia-1,7-diazabicyclo[4.3.1]decan-9-yl)ethyl)-5-fluoropyridin-3-yl)-3-((1r,4R)-4-methoxycyclohexyl)propanamide], the EC50 was found to be 5.6 nM. On to `N[C@H](C(=O)Nc1cncc(F)c1CC[C@H]1CN[C@@H]2CCCS(=O)(=O)N1C2)[C@@H](c1ccc(Cl)cc1)C1CCC(F)(F)CC1` [Example 241, (2S,3R)-2-amino-3-(4-chlorophenyl)-3-(4,4-difluorocyclohexyl)-N-(4-(2-((6R,9S)-2,2-dioxido-2-thia-1,7-diazabicyclo[4.3.1]decan-9-yl)ethyl)-5-fluoropyridin-3-yl)propanamide], for which the EC50 is 7.3 nM. Consider `CCC(CC)[C@H](c1ccc(Cl)cc1)[C@H](N)C(=O)Nc1cncc(F)c1CC[C@H]1CN[C@@H]2CCCS(=O)(=O)N1C2` [Example 242, (2S,3R)-2-amino-3-(4-chlorophenyl)-N-(4-(2-((6R,9S)-2,2-dioxido-2-thia-1,7-diazabicyclo[4.3.1]decan-9-yl)ethyl)-5-fluoropyridin-3-yl)-4-ethylhexanamide], for which the EC50 is 17 nM. For `CC1(C)C[C@@H]([C@H](c2ccc(Cl)c(F)c2)[C@H](N)C(=O)Nc2cncc(F)c2CC[C@H]2CN[C@@H]3CCCS(=O)(=O)N2C3)CCO1` [Example 243, (2S,3R)-2-amino-3-(4-chloro-3-fluorophenyl)-3-((S)-2,2-dimethyltetrahydro-2H-pyran-4-yl)-N-(4-(2-((6R,9S)-2,2-dioxido-2-thia-1,7-diazabicyclo[4.3.1]decan-9-yl)ethyl)-5-fluoropyridin-3-yl)propanamide], the EC50 was 8 nM. As to `N[C@H](C(=O)Nc1cncc(F)c1CC[C@H]1CN[C@@H]2CCCS(=O)(=O)N1C2)[C@@H](c1ccc(Cl)c(F)c1)C1CCCCC1` [Example 244, (2S,3R)-2-amino-3-(4-chloro-3-fluorophenyl)-3-cyclohexyl-N-(4-(2-((6R,9S)-2,2-dioxido-2-thia-1,7-diazabicyclo[4.3.1]decan-9-yl)ethyl)-5-fluoropyridin-3-yl)propanamide], the EC50 is 4.3 nM. As for `C[C@@H]1CC([C@H](c2ccc(Cl)c(F)c2)[C@H](N)C(=O)Nc2cncc(F)c2CC[C@H]2CN[C@@H]3CCCS(=O)(=O)N2C3)C[C@H](C)O1` (stereo partly drawn) [Example 245, (2S,3R)-2-amino-3-(4-chloro-3-fluorophenyl)-3-((2R,6S)-2,6-dimethyltetrahydro-2H-pyran-4-yl)-N-(4-(2-((6R,9S)-2,2-dioxido-2-thia-1,7-diazabicyclo[4.3.1]decan-9-yl)ethyl)-5-fluoropyridin-3-yl)propanamide], the EC50 turned out to be 5.8 nM. Turning to `CC(F)(F)c1ccc([C@H](c2ccc(Cl)cc2)[C@H](N)C(=O)Nc2cncc(F)c2CC[C@H]2CN[C@@H]3CCCS(=O)(=O)N2C3)cn1` [Example 246, (2S,3R)-2-amino-3-(4-chlorophenyl)-3-(6-(1,1-difluoroethyl)pyridin-3-yl)-9-(4-(2-((6R,9S)-2,2-dioxido-2-thia-1,7-diazabicyclo[4.3.1]decan-9-yl)ethyl)-5-fluoropyridin-3-yl)propanamide], the EC50 was found to be 19 nM. The same measure for `CC(C)Oc1ncc([C@H](c2ccc(Cl)cc2)[C@H](N)C(=O)Nc2cccc(F)c2CC[C@H]2CN[C@@H]3CCCS(=O)(=O)N2C3)cn1` [Example 247, (βS)-4-chloro-N-(2-{2-[(6R,9S)-2,2-dioxido-2-thia-1,7-diazabicyclo[4.3.1]dec-9-yl]ethyl}-3-fluorophenyl)-β-[2-(1-methylethoxy)pyrimidin-5-yl]-L-phenylalaninamide]: 7.2 nM; for `CCO[C@H]1CC[C@H](C(c2ccc(Cl)c(F)c2)[C@H](N)C(=O)Nc2cccc(F)c2CC[C@H]2CN[C@@H]3CCCS(=O)(=O)N2C3)CC1` (stereo partly drawn) [Example 248, (βR).4-chloro-N-(2-{2-[(6R,9S)-2,2-dioxido-2-thia-1,7-diazabicyclo[4.3.1]dec-9-yl]ethyl}-3-fluorophenyl)-β-[(1r,4R)-4-ethoxycyclohexyl]-3-fluoro-L-phenylalaninamide]: 5.5 nM. Turning to `N[C@H](C(=O)Nc1cccc(F)c1CC[C@H]1CN[C@@H]2CCCS(=O)(=O)N1C2)[C@H](c1cnc(C(F)(F)F)nc1)c1ccc(Cl)c(F)c1` [Example 249, (βS)-4-chloro-N-(2-{2-[(6R,9S)-2,2-dioxido-2-thia-1,7-diazabicyclo[4.3.1]dec-9-yl]ethyl}-3-fluorophenyl)-3-fluoro-β-[2-(trifluoromethyl)pyrimidin-5-yl]-L-phenylalaninamide], the EC50 turned out to be 5.1 nM.

Take `CC(C)O[C@H]1CC[C@H]([C@H](c2ccc(Cl)cc2)[C@H](N)C(=O)Nc2cncc(F)c2CC[C@H]2CN[C@@H]3CCCS(=O)(=O)N2C3)CC1` [Example 250, (βR)-4-chloro-N-(4-{2-[(6R,9S)-2,2-dioxido-2-thia-1,7-diazabicyclo[4.3.1]dec-9-yl]ethyl}-5-fluoropyridin-3-yl)-β-[(1r,4R)-4-(1-methylethoxy)cyclohexyl]-L-phenylalaninamide]: the EC50 came to 7.7 nM.

For the compound `N[C@H](C(=O)Nc1cccc(F)c1CC[C@H]1CN[C@@H]2CCCS(=O)(=O)N1C2)[C@@H](c1ccc(Cl)cc1)c1csc(C(F)(F)F)n1` [Example 251, (βR)-4-chloro-N-(2-{2-[(6R,9S)-2,2-dioxido-2-thia-1,7-diazabicyclo[4.3.1]dec-9-yl]ethyl}-3-fluorophenyl)-β-[2-(trifluoromethyl)-1,3-thiazol-4-yl]-L-phenylalaninamide], the EC50 was 9.2 nM. With `COC(=O)N[C@H](C(=O)Nc1cccc(F)c1CC[C@H]1CN[C@@H]2CCCS(=O)(=O)N1C2)[C@@H](c1ccc(Cl)cc1)c1csc(C(F)(F)F)n1` [Example 252, methyl {(1S,2R)-2-(4-chlorophenyl)-1-[(2-{2-[(6R,9S)-2,2-dioxido-2-thia-1,7-diazabicyclo[4.3.1]dec-9-yl]ethyl}-3-fluorophenyl)carbamoyl]-2-[2-(trifluoromethyl)-1,3-thiazol-4-yl]ethyl}carbamate], the EC50 amounted to 17 nM. On to `CCO[C@H]1CC[C@H]([C@H](c2ccc(Cl)c(F)c2)[C@H](N)C(=O)Nc2cncc(F)c2CC[C@H]2CN[C@@H]3CCCS(=O)(=O)N2C3)CC1` [Example 253, (βR)-4-chloro-N-(4-{2-[(6R,9S)-2,2-dioxido-2-thia-1,7-diazabicyclo[4.3.1]dec-9-yl]ethyl}-5-fluoropyridin-3-yl)-β-[(1r,4R)-4-ethoxycyclohexyl]-3-fluoro-L-phenylalaninamide], for which the EC50 was 5.8 nM.

(Values after patent US10138255B2, “Piperazine derivatives as HIV protease inhibitors” (Merck Sharp & Dohme Corp., priority 2014, dated 2018).)
